How the values were obtained:
Format in all cases: in vivo
[1] = tested on: wheat (Triticum aestivum); assay: Test A postemergence; conditions: postemergence
Outline: (§1)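 Compounds were formulated in a non-phytotoxic solvent mixture with surfactant and applied as a preemergence directed soil spray after seeding, or sprayed postemergence over plants 2 to 10 cm tall at the one- to two-leaf stage. Evaluation after about 10 d compared treated with untreated controls, using a scale from 0 (no effect) to 100 (complete control).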

[2] = tested on: ragweed (common ragweed, Ambrosia elatior); assay: Test A postemergence; conditions: postemergence
Outline: as §1

[3] = tested on: Kochia (Kochia scoparia); assay: Test A postemergence; conditions: postemergence
Outline: as §1

[4] = tested on: Galium (catchweed bedstraw, Galium aparine); assay: Test A postemergence; conditions: postemergence
Outline: as §1

[5] = tested on: pigweed (Amaranthus retroflexus); assay: Test A postemergence; conditions: postemergence
Outline: as §1

[6] = tested on: corn (Zea mays); assay: Test A postemergence; conditions: postemergence
Outline: as §1

[7] = tested on: blackgrass (Alopecurus myosuroides); assay: Test A postemergence; conditions: postemergence
Outline: as §1

[8] = tested on: ryegrass, Italian (Italian ryegrass, Lolium multiflorum); assay: Test A postemergence; conditions: postemergence
Outline: as §1

[9] = tested on: barnyardgrass (Echinochloa crus-galli); assay: Test A postemergence; conditions: postemergence
Outline: as §1

[10] = tested on: giant foxtail (Setaria faberii); assay: Test A postemergence; conditions: postemergence
Outline: as §1

[11] = tested on: ragweed (common ragweed, Ambrosia elatior); assay: Test A preemergence; conditions: preemergence
Outline: as §1

[12] = tested on: Kochia (Kochia scoparia); assay: Test A preemergence; conditions: for Plant response rating, Kochia: preemergence
Outline: as §1

[13] = tested on: pigweed (Amaranthus retroflexus); assay: Test A preemergence; conditions: for Plant response rating, Pigweed: preemergence
[14] = tested on: ryegrass, Italian (Italian ryegrass, Lolium multiflorum); assay: Test A preemergence; conditions: for Plant response rating, Ryegrass, Italian: preemergence
Outline: as §1

[15] = tested on: barnyardgrass (Echinochloa crus-galli); assay: Test A preemergence; conditions: for Plant response rating, Barnyardgrass: preemergence
Outline: as §1

[16] = tested on: giant foxtail (Setaria faberii); assay: Test A preemergence; conditions: for Plant response rating, Foxtail, Giant: preemergence
Outline: as §1

[17] = tested on: waterhemp (common waterhemp, Amaranthus rudis); assay: Test C preemergence; conditions: for Plant response rating (scale of 0 to 100), Waterhemp: 31 g ai/ha, 0 is no effect, 100 is complete control; for Plant response rating, Waterhemp: scale 0 to 100, 0 no effect, 100 complete control
Text: Seeds of plant species selected from blackgrass (Alopecurus myosuroides), ryegrass, Italian (Italian ryegrass, Lolium multiflorum), wheat (winter wheat, Triticum aestivum), Galium (catchweed bedstraw, Galium aparine), corn (Zea mays), crabgrass, large (large crabgrass, Digitaria sanguinalis), foxtail, giant (giant foxtail, Setaria faberii), johnsongrass (Sorghum halepense), lambsquarters (Chenopodium album), morningglory (Ipomoea coccinea), nutsedge, yellow (yellow nutsedge, Cyperus esculentus), pigweed (Amaranthus retroflexus), ragweed (common ragweed, Ambrosia elatior), soybean (Glycine max), barnyardgrass (Echinochloa crus-galli), oilseed rape (Brassica napus), waterhemp (common waterhemp, Amaranthus rudis) and velvetleaf (Abutilon theophrasti) were planted into a blend of loam soil and sand and treated preemergence with test chemicals formulated in a non-phytotoxic solvent mixture which included a surfactant.
At the same time, plants selected from these crop and weed species and also Kochia (Kochia scoparia), oat, wild (wild oat, Avena fatua), and chickweed (common chickweed, Stellaria media) were planted in pots containing Sunshine Redi-Earth® planting medium comprising spaghnum peat moss, vermiculite, starter nutrients and dolomitic limestone and treated with postemergence applications of test chemicals formulated in the same manner. Plants ranged in height from 2 to 18 cm (1- to 4-leaf stage) for postemergence treatments. Treated plants and controls were maintained in a greenhouse for 13 to 15 d, after which time all species were compared to controls and visually evaluated. Plant response ratings, summarized in Table C, are based on a scale of 0 to 100 where 0 is no effect and 100 is complete control. A dash (-) response means no test result.

[18] = tested on: ducksalad (Heteranthera limosa); assay: Test B flooded paddy test; conditions: Flood, 0 to 100 scale where 0 is no effect and 100 is complete control, 13 to 15 d
Outline: (§2)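 2-leaf plants; pots flooded 3 cm over soil; cpd added to paddy water; depth held; greenhouse 13–15 d; visual rating vs controls, 0 = no effect, 100 = complete control.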

[19] = tested on: rice (Oryra sativa); assay: Test B flooded paddy test; conditions: Flood, 0 to 100 scale where 0 is no effect and 100 is complete control, 13 to 15 d
Outline: as §2

[20] = tested on: barnyardgrass (Echinochloa crus-galli); assay: Test B flooded paddy test; conditions: Flood, 0 to 100 scale where 0 is no effect and 100 is complete control, 13 to 15 d
Outline: as §2

[21] = tested on: sedge, umbrella (small-flower umbrella sedge, Cyperus difformis); assay: Test B flooded paddy test; conditions: Flood, 0 to 100 scale where 0 is no effect and 100 is complete control, 13 to 15 d
Outline: as §2

[22] = 125 g ai/ha, visual injury after approximately 10 d, 0 to 100 scale (0 no effect, 100 complete control)
[23] = 500 g ai/ha, visual injury, 0 to 100 scale (0 no effect, 100 complete control), approx. 10 d
[24] = 125 g ai/ha, visual rating after approx. 10 d, 0 to 100 scale where 0 is no effect and 100 is complete control
[25] = 500 g ai/ha, 0 to 100 scale, 0 = no effect, 100 = complete control
[26] = 125 g ai/ha, visual injury rating on 0 to 100 scale (0 no effect, 100 complete control), approx. 10 d
[27] = 500 g ai/ha, 0 to 100 scale, 0 no effect, 100 complete control
[28] = 125 g ai/ha, 0 to 100 scale (0 no effect, 100 complete control)
[29] = Preemergence, 500 g ai/ha, visual injury approx. 10 d

O=C1NCC(c2cccc(OC(F)(F)C(F)F)c2)C1C(=O)Nc1ccc(F)c(F)c1F (racemic) [Compound 698]
Plant response rating, Wheat [1, 22]: 30 | Plant response rating, Wheat [1, 23]: 40 | Plant response rating, Ragweed [2, 22]: 20 | Plant response rating, Ragweed [2, 23]: 40 | Plant response rating, Kochia [3, 22]: 50 | Plant response rating, Kochia [3, 23]: 60 | Plant response rating, Galium [4, 22]: 50 | Plant response rating, Galium [4, 23]: 50 | Plant response rating, Pigweed [5, 22]: 40 | Plant response rating, Pigweed [5, 23]: 60 | Plant response rating, Corn [6, 22]: 80 | Plant response rating, Corn [6, 23]: 80 | Plant response rating, Blackgrass [7, 22]: 30 | Plant response rating, Blackgrass [7, 23]: 40 | Plant response rating, Ryegrass, Italian [8, 22]: 30 | Plant response rating, Ryegrass, Italian [8, 23]: 30 | Plant response rating, Barnyardgrass [9, 22]: 70 | Plant response rating, Barnyardgrass [9, 23]: 80 | Plant response rating, Foxtail, Giant [10, 22]: 80 | Plant response rating, Foxtail, Giant [10, 23]: 80 | Plant response rating, Ragweed [11, 24]: 0 | Plant response rating, Ragweed [11, 25]: 50 | Plant response rating, Kochia [12, 24]: 50 | Plant response rating, Kochia [12, 25]: 40 | Plant response rating, Pigweed [13, 24]: 50 | Plant response rating, Pigweed [13, 25]: 50 | Plant response rating, Ryegrass, Italian [14, 24]: 30 | Plant response rating, Ryegrass, Italian [14, 25]: 60 | Plant response rating, Barnyardgrass [15, 24]: 80 | Plant response rating, Barnyardgrass [15, 25]: 90 | Plant response rating, Foxtail, Giant [16, 24]: 90 | Plant response rating, Foxtail, Giant [16, 25]: 90 | Plant response rating (scale of 0 to 100), Waterhemp [17]: 85 | Plant response rating, Waterhemp ([17]; 62 g ai/ha): 85 | Plant response rating, Waterhemp ([17]; 125 g ai/ha): 85 | Plant response rating, Waterhemp ([17]; 250 g ai/ha): 90 | Plant response rating, Ducksalad ([18]; 500 g ai/ha): 90 | Plant response rating, Rice ([19]; 500 g ai/ha): 0 | Plant response rating, Barnyardgrass ([20]; 500 g ai/ha): 50 | Plant response rating, Sedge, Umbrella ([21]; 500 g ai/ha): 0

CN1CC(c2cccc(OC(F)(F)C(F)F)c2)C(C(=O)Nc2ccc(F)c(F)c2F)C1=O (stereo not shown) [Compound 429]
Wheat plant response rating [1, 26]: 50 | Plant response rating, Wheat [1, 27]: 60 | Ragweed plant response rating [2, 26]: 30 | Plant response rating, Ragweed [2, 27]: 50 | Kochia plant response rating [3, 26]: 60 | Plant response rating, Kochia [3, 27]: 70 | Galium plant response rating [4, 26]: 70 | Plant response rating, Galium [4, 27]: 70 | Pigweed plant response rating [5, 26]: 70 | Plant response rating, Pigweed [5, 27]: 80 | Corn plant response rating [6, 26]: 70 | Plant response rating, Corn [6, 27]: 80 | Blackgrass plant response rating [7, 26]: 50 | Plant response rating, Blackgrass [7, 27]: 70 | Ryegrass, Italian plant response rating [8, 26]: 60 | Plant response rating, Ryegrass, Italian [8, 27]: 80 | Barnyardgrass plant response rating [9, 26]: 90 | Plant response rating, Barnyardgrass [9, 27]: 90 | Foxtail, Giant plant response rating [10, 26]: 90 | Plant response rating, Foxtail, Giant [10, 27]: 90 | Plant response rating, Ragweed [11, 28]: 50 | Plant response rating, Kochia [12, 28]: 70 | Kochia plant response rating (0 to 100 scale, 0 is no effect, 100 is complete control) [12, 29]: 80 | Plant response rating, Pigweed [13, 28]: 80 | Pigweed plant response rating (0 to 100 scale, 0 is no effect, 100 is complete control) [13, 29]: 80 | Plant response rating, Ryegrass, Italian [14, 28]: 70 | Ryegrass, Italian plant response rating (0 to 100 scale, 0 is no effect, 100 is complete control) [14, 29]: 80 | Plant response rating, Barnyardgrass [15, 28]: 90 | Barnyardgrass plant response rating (0 to 100 scale, 0 is no effect, 100 is complete control) [15, 29]: 90 | Plant response rating, Foxtail, Giant [16, 28]: 90 | Foxtail, Giant plant response rating (0 to 100 scale, 0 is no effect, 100 is complete control) [16, 29]: 100 | Plant response rating, Waterhemp ([17]; 62 g ai/ha): 85 | Plant response rating, Waterhemp ([17]; 125 g ai/ha): 90 | Plant response rating, Waterhemp ([17]; 250 g ai/ha): 90 | Plant response rating, Ducksalad ([18]; 250 g ai/ha): 100 | Plant response rating, Rice ([19]; 250 g ai/ha): 15 | Plant response rating, Barnyardgrass ([20]; 250 g ai/ha): 65 | Plant response rating, Sedge, Umbrella ([21]; 250 g ai/ha): 0

O=C1NCC(c2ccc(I)cc2)C1C(=O)Nc1cccc(F)c1F (racemic) [Compound 700]
Plant response rating, Wheat [1, 22]: 0 | Plant response rating, Wheat [1, 23]: 60 | Plant response rating, Ragweed [2, 22]: 20 | Plant response rating, Ragweed [2, 23]: 30 | Plant response rating, Kochia [3, 22]: 30 | Plant response rating, Kochia [3, 23]: 60 | Plant response rating, Galium [4, 22]: 40 | Plant response rating, Galium [4, 23]: 60 | Plant response rating, Pigweed [5, 22]: 0 | Plant response rating, Pigweed [5, 23]: 30 | Plant response rating, Corn [6, 22]: 0 | Plant response rating, Corn [6, 23]: 70 | Plant response rating, Blackgrass [7, 22]: 0 | Plant response rating, Blackgrass [7, 23]: 50 | Plant response rating, Ryegrass, Italian [8, 22]: 30 | Plant response rating, Ryegrass, Italian [8, 23]: 40 | Plant response rating, Barnyardgrass [9, 22]: 70 | Plant response rating, Barnyardgrass [9, 23]: 70 | Plant response rating, Foxtail, Giant [10, 22]: 70 | Plant response rating, Foxtail, Giant [10, 23]: 90 | Plant response rating, Ragweed [11, 24]: 0 | Plant response rating, Ragweed [11, 25]: 60 | Plant response rating, Kochia [12, 24]: 30 | Plant response rating, Kochia [12, 25]: 70 | Plant response rating, Pigweed [13, 24]: 40 | Plant response rating, Pigweed [13, 25]: 60 | Plant response rating, Ryegrass, Italian [14, 24]: 0 | Plant response rating, Ryegrass, Italian [14, 25]: 30 | Plant response rating, Barnyardgrass [15, 24]: 90 | Plant response rating, Barnyardgrass [15, 25]: 90 | Plant response rating, Foxtail, Giant [16, 24]: 90 | Plant response rating, Foxtail, Giant [16, 25]: 90 | Plant response rating (scale of 0 to 100), Waterhemp [17]: 10 | Plant response rating, Waterhemp ([17]; 62 g ai/ha): 65 | Plant response rating, Waterhemp ([17]; 125 g ai/ha): 75 | Plant response rating, Waterhemp ([17]; 250 g ai/ha): 70 | Plant response rating, Ducksalad ([18]; 500 g ai/ha): 100 | Plant response rating, Rice ([19]; 500 g ai/ha): 0 | Plant response rating, Barnyardgrass ([20]; 500 g ai/ha): 85 | Plant response rating, Sedge, Umbrella ([21]; 500 g ai/ha): 0
